From the NIST ThermoML archive (doi:10.1021/je800110r)
Numbers after ± are expanded uncertainties.

Conditions: 303.16 K, Liquid, Vibrating tube method

CCCCCCCCCC [decane]
Conditions | mass density [kg/m3]
9263 kPa | 729.6 ± 2
9277 kPa | 729.6 ± 2
9288 kPa | 729.7 ± 2
9302 kPa | 729.7 ± 2
9321 kPa | 729.7 ± 2
9332 kPa | 729.7 ± 2
9348 kPa | 729.7 ± 2
9360 kPa | 729.7 ± 2
9372 kPa | 729.7 ± 2
9392 kPa | 729.7 ± 2
9407 kPa | 729.8 ± 2
9419 kPa | 729.8 ± 2
9433 kPa | 729.7 ± 2
9449 kPa | 729.9 ± 2
9461 kPa | 729.8 ± 2
9473 kPa | 729.8 ± 2
9491 kPa | 729.7 ± 2
9509 kPa | 729.9 ± 2
9521 kPa | 729.8 ± 2
9535 kPa | 729.8 ± 2
9552 kPa | 729.9 ± 2
9566 kPa | 729.8 ± 2
9581 kPa | 729.7 ± 2
9595 kPa | 729.9 ± 2
9608 kPa | 729.9 ± 2
9624 kPa | 729.9 ± 2
9639 kPa | 729.8 ± 2
9655 kPa | 729.9 ± 2
9672 kPa | 730 ± 2
9685 kPa | 729.8 ± 2
9704 kPa | 729.9 ± 2
9725 kPa | 730 ± 2
9738 kPa | 730 ± 2
9754 kPa | 730 ± 2
9767 kPa | 730.2 ± 2
9778 kPa | 730 ± 2
9793 kPa | 730.1 ± 2
9808 kPa | 729.9 ± 2
9820 kPa | 730 ± 2
9831 kPa | 730.1 ± 2
9841 kPa | 730.1 ± 2
9855 kPa | 730.1 ± 2
9870 kPa | 730.1 ± 2
9881 kPa | 730.2 ± 2
9900 kPa | 730.1 ± 2
9913 kPa | 730.1 ± 2
9921 kPa | 730.2 ± 2
9935 kPa | 730.2 ± 2
9946 kPa | 730.2 ± 2
9956 kPa | 730.2 ± 2
9969 kPa | 730.2 ± 2
9979 kPa | 730.1 ± 2
9992 kPa | 730.3 ± 2
10003 kPa | 730.3 ± 2
10021 kPa | 730.1 ± 2
10032 kPa | 730.2 ± 2
10048 kPa | 730.2 ± 2
10090 kPa | 730.4 ± 2
10106 kPa | 730.3 ± 2
10117 kPa | 730.4 ± 2
10132 kPa | 730.2 ± 2
10145 kPa | 730.3 ± 2
10164 kPa | 730.3 ± 2
10176 kPa | 730.5 ± 2
10188 kPa | 730.3 ± 2
10206 kPa | 730.3 ± 2
10221 kPa | 730.3 ± 2
10231 kPa | 730.4 ± 2
10246 kPa | 730.4 ± 2
10276 kPa | 730.4 ± 2
10289 kPa | 730.5 ± 2
10302 kPa | 730.4 ± 2
10318 kPa | 730.5 ± 2
10331 kPa | 730.4 ± 2
10343 kPa | 730.5 ± 2
10358 kPa | 730.5 ± 2
10374 kPa | 730.4 ± 2
10385 kPa | 730.4 ± 2
10401 kPa | 730.6 ± 2
10414 kPa | 730.4 ± 2
10432 kPa | 730.6 ± 2
10446 kPa | 730.4 ± 2
10458 kPa | 730.6 ± 2
10475 kPa | 730.6 ± 2
10487 kPa | 730.5 ± 2
10499 kPa | 730.6 ± 2
10515 kPa | 730.7 ± 2
10527 kPa | 730.7 ± 2
10545 kPa | 730.6 ± 2
10562 kPa | 730.7 ± 2
10574 kPa | 730.6 ± 2
10584 kPa | 730.6 ± 2
10602 kPa | 730.7 ± 2
10616 kPa | 730.7 ± 2
10630 kPa | 730.7 ± 2
10646 kPa | 730.7 ± 2
10659 kPa | 730.7 ± 2
10672 kPa | 730.6 ± 2
10688 kPa | 730.8 ± 2
10707 kPa | 730.8 ± 2
10717 kPa | 730.7 ± 2
10729 kPa | 730.8 ± 2
10748 kPa | 730.7 ± 2
10765 kPa | 730.9 ± 2
10779 kPa | 730.7 ± 2
10791 kPa | 730.8 ± 2
10806 kPa | 730.8 ± 2
10823 kPa | 730.8 ± 2
10836 kPa | 730.7 ± 2
10856 kPa | 730.8 ± 2
10873 kPa | 730.9 ± 2
10886 kPa | 731 ± 2
10904 kPa | 731 ± 2
10917 kPa | 731.1 ± 2
10937 kPa | 730.9 ± 2
10954 kPa | 731 ± 2
10969 kPa | 730.8 ± 2
10986 kPa | 731 ± 2
11001 kPa | 730.9 ± 2
11014 kPa | 731 ± 2
11030 kPa | 731.1 ± 2
11049 kPa | 731 ± 2
11062 kPa | 730.9 ± 2
11082 kPa | 731 ± 2
11102 kPa | 731.1 ± 2
11116 kPa | 731.1 ± 2
11133 kPa | 731 ± 2
11149 kPa | 731 ± 2
11162 kPa | 731 ± 2
11186 kPa | 731.1 ± 2
11200 kPa | 731.1 ± 2
11216 kPa | 731.1 ± 2
11234 kPa | 731.2 ± 2
11257 kPa | 731.1 ± 2
11275 kPa | 731.2 ± 2
11291 kPa | 731.2 ± 2
11312 kPa | 731.2 ± 2
11330 kPa | 731.2 ± 2
11347 kPa | 731.2 ± 2
11365 kPa | 731.2 ± 2
11379 kPa | 731.1 ± 2
11396 kPa | 731.2 ± 2
11417 kPa | 731.3 ± 2
11436 kPa | 731.3 ± 2
11452 kPa | 731.4 ± 2
11469 kPa | 731.4 ± 2
11485 kPa | 731.3 ± 2
11504 kPa | 731.4 ± 2
11519 kPa | 731.2 ± 2
11533 kPa | 731.3 ± 2
11553 kPa | 731.3 ± 2
11570 kPa | 731.4 ± 2
11589 kPa | 731.5 ± 2
11609 kPa | 731.2 ± 2
11623 kPa | 731.4 ± 2
11643 kPa | 731.3 ± 2
11660 kPa | 731.4 ± 2
11677 kPa | 731.5 ± 2
11695 kPa | 731.6 ± 2
11712 kPa | 731.6 ± 2
11732 kPa | 731.5 ± 2
11749 kPa | 731.5 ± 2
11762 kPa | 731.6 ± 2
11782 kPa | 731.5 ± 2
11797 kPa | 731.5 ± 2
11820 kPa | 731.6 ± 2
11843 kPa | 731.7 ± 2
11858 kPa | 731.6 ± 2
11881 kPa | 731.7 ± 2
11901 kPa | 731.7 ± 2
11916 kPa | 731.7 ± 2
11942 kPa | 731.6 ± 2
11962 kPa | 731.7 ± 2
11978 kPa | 731.6 ± 2
11996 kPa | 731.6 ± 2
12012 kPa | 731.6 ± 2
12034 kPa | 731.8 ± 2
12055 kPa | 731.8 ± 2
12070 kPa | 731.8 ± 2
12097 kPa | 731.7 ± 2
12118 kPa | 731.7 ± 2
12135 kPa | 731.8 ± 2
12159 kPa | 731.8 ± 2
12183 kPa | 731.9 ± 2
12196 kPa | 731.9 ± 2
12215 kPa | 731.9 ± 2
12234 kPa | 731.7 ± 2
12254 kPa | 731.8 ± 2
12270 kPa | 731.9 ± 2
12289 kPa | 731.9 ± 2
12305 kPa | 732 ± 2
12321 kPa | 732.1 ± 2
12346 kPa | 731.9 ± 2
12371 kPa | 732 ± 2
12391 kPa | 732.1 ± 2
12410 kPa | 732.1 ± 2
12430 kPa | 731.9 ± 2
12452 kPa | 732.1 ± 2
12470 kPa | 732.1 ± 2
12489 kPa | 732.1 ± 2
12509 kPa | 732 ± 2
12535 kPa | 732.1 ± 2
12555 kPa | 732 ± 2
12575 kPa | 732.1 ± 2
12592 kPa | 732.2 ± 2
12618 kPa | 732.2 ± 2
12635 kPa | 732.1 ± 2
12653 kPa | 732.1 ± 2
12679 kPa | 732.2 ± 2
12702 kPa | 732.3 ± 2
12723 kPa | 732.2 ± 2
12747 kPa | 732.3 ± 2
12767 kPa | 732.3 ± 2
12785 kPa | 732.3 ± 2
12809 kPa | 732.2 ± 2
12833 kPa | 732.2 ± 2
12850 kPa | 732.4 ± 2
12872 kPa | 732.4 ± 2
12896 kPa | 732.5 ± 2
12917 kPa | 732.4 ± 2
12942 kPa | 732.3 ± 2
12960 kPa | 732.4 ± 2
12984 kPa | 732.4 ± 2
13003 kPa | 732.3 ± 2
13025 kPa | 732.5 ± 2
13047 kPa | 732.5 ± 2
13074 kPa | 732.6 ± 2
13102 kPa | 732.6 ± 2
13121 kPa | 732.4 ± 2
13143 kPa | 732.6 ± 2
13165 kPa | 732.5 ± 2
13187 kPa | 732.5 ± 2
13210 kPa | 732.5 ± 2
13232 kPa | 732.6 ± 2
13251 kPa | 732.6 ± 2
13274 kPa | 732.8 ± 2
13296 kPa | 732.7 ± 2
13316 kPa | 732.6 ± 2
13344 kPa | 732.6 ± 2
13373 kPa | 732.6 ± 2
13393 kPa | 732.7 ± 2
13422 kPa | 732.8 ± 2
13451 kPa | 732.7 ± 2
13471 kPa | 732.9 ± 2
13501 kPa | 732.8 ± 2
13528 kPa | 732.7 ± 2
13551 kPa | 732.8 ± 2
13581 kPa | 732.8 ± 2
13605 kPa | 732.9 ± 2
13631 kPa | 732.9 ± 2
13656 kPa | 733 ± 2
13679 kPa | 733 ± 2
13699 kPa | 733.1 ± 2
13723 kPa | 732.9 ± 2
13747 kPa | 732.9 ± 2
13776 kPa | 733 ± 2
13797 kPa | 732.9 ± 2
13819 kPa | 733.1 ± 2
13850 kPa | 733 ± 2
13875 kPa | 733.2 ± 2
13903 kPa | 733.1 ± 2
13931 kPa | 733.1 ± 2
13957 kPa | 733.1 ± 2
13985 kPa | 733.2 ± 2
14017 kPa | 733.2 ± 2
14039 kPa | 733.2 ± 2
14064 kPa | 733.2 ± 2
14097 kPa | 733.2 ± 2
14129 kPa | 733.3 ± 2
14154 kPa | 733.3 ± 2
14184 kPa | 733.4 ± 2
14209 kPa | 733.3 ± 2
14239 kPa | 733.4 ± 2
14262 kPa | 733.4 ± 2
